From article PMC2862740, “Furin Targeted Drug Delivery for Treatment of Rhabdomyosarcoma in a Mouse Model” (PLoS ONE, 2010)
Positions of bridges follow the written chain, without caps; N, C: chain ends. No end group written: not given here. *: point of attachment. FITC = O=C1OC2(c3ccc(O)cc3Oc3cc(O)ccc32)c2ccc(NC(=S)*)cc21

Experiments:
RD cells [1] = assay: competition of phage RMS-P3 binding by synthetic peptide; assay type: cell-based; conditions: for regression slope b of phage RMS-P3 binding versus peptide concentration: least-squares regression, N = 18, RMS-P3 r^2 = 0.889, p<0.0001, control r^2 = 0.0002, p = 0.959
Procedure: Figure 1 Validation of selected phages binding on RMS cells in vivo and in vitro. (A) Quantification of binding of single phage clones to different cell lines. Six phages selected from in vitro and in vivo screenings were validated individually in binding assays to three RMS cell lines (embryonal RMS: RD; alveolar RMS: Rh30 and Rh4) as well as to normal myoblasts (SkMC-c) and fibroblast cells (MRC-5). Phage clones are ordered according to the frequency of occurrence. Binding was calculated over non-recombinant T7, depicted are mean values ± SD of three independent experiments. (B) RMS-P3 and RMS-P6 phage distribution in RD mouse xenografts. Homing of phages to tumor was compared to control organs. Binding was normalized over phage T7 and tissue weight. Mean values ± SD of four independent experiments are shown. Numerical values for tumor to organ ratios are indicated above the bars. (C) Validation of RMS-P3 peptide sequence by competition of phage binding. 10^6 RD cells were incubated for 30 min with increasing concentrations of RMS-P3 peptide ([…]) or control peptide ([…]). Then, phages (10^9 pfu) were added for 1 h. Phage binding was normalized over non-recombinant T7. Data are presented as percentage of maximal phage binding obtained in the absence of synthetic peptide. Error bars indicate mean ± SD from three independent experiments. […] TEXT PRINTED IN THE PICTURE: (B) RMS-P6: tumor: 1; muscle: 1/6; kidney: 1/8; brain: 1/28; skin: 1/12 | (B) RMS-P3: tumor: 1; muscle: 1/24; kidney: 1/15; brain: 1/12; skin: 1/10 DOUBTS OF THE COPYIST ABOUT THIS PICTURE: Panel B: the picture prints no measure for the numbers over the bars. Each tissue name was assigned from the bar fill and the order of the printed key. / RMS-P6, brain: 1/28, the last digit may be 8 or 6 (small print)
(§1) 10^6 RD cells were detached (2.5 mM EDTA-PBS) and reconstituted (DMEM/1% BSA). Cells were preincubated with 100 µl of peptides (RMS-P3 or RMS-Pctrl) or general PC inhibitor decanoyl-Arg-Val-Lys-Arg-chloromethylketone (Dec-RVKR-cmk, Calbiochem, Switzerland) for 30 minutes. Phages (10^9 pfu) were added for 1 hour at RT under continuous rotation. Cells were washed four times with DMEM/1% BSA; titer of bound phage was determined by titration with BLT5403 and calculated over non-recombinant T7.

RD xenografts = assay: targeted doxorubicin treatment of RD xenografts
Procedure: Five groups of 6 mice were treated when tumors reached 60 mm^3 in size. Treatment consisted of weekly tail vein injections for 30 days.
CD1-Nu/nu mice (4 to 6 weeks old, Charles River, Germany) were used for the in vivo screening, and 6 weeks old NOD/SCID IL2R γ-/- mice were used for all other studies. RMS cells (5×10^6 in 150 µl HBSS) were injected subcutaneously into the dorsolateral flank of the mice. Both diameters (d) of the spherical tumors were measured twice weekly and the volume was calculated with the general formula V = (4/3) πr^3, whereby r = (d1+d2)/4. Prior to the experiment, mice were anesthetized with 0.015 ml/g avertin by i.p. injection. 1 mg/ml of FITC-peptide in 250 µl PBS was injected by tail vein injection into mice bearing tumors 150 mm^3 in size. After 10 minutes circulation, mice were perfused, tumor and control organs were dissected and frozen in O.C.T. embedding medium (Leica Microsystems, Germany). 10 µm cryosections were washed with PBS, fixed for 15 minutes in ice-cold methanol and air-dried. Endothelial stainings were performed using rat monoclonal antibodies against mouse markers CD31 and MECA-32, both at the dilution of 1∶50 (BD biosciences, Switzerland). A rabbit polyclonal anti-furin-antibody (Abcam) was used at a dilution of 1∶1500. All corresponding secondary antibodies were AlexaFluor594-labeled IgGs (1∶300, Invitrogen).
Mice with size-matched tumors (∼60 mm^3) were randomized into five groups and injected once per week for 4 consecutive weeks. […] Control groups received either a mixture of 10 µg free doxorubicin and peptide RMS-P3/RR, an equimolar solution of peptide RMS-P-3/RR alone or PBS alone. Concentrations were confirmed by measuring the absorbance of conjugated doxorubicin at 490 nm. […] Mice were monitored for weight and tumor growth for 30 days.

[2] = test system: RD xenograft tumors and control organs; assay: FITC-peptide distribution in xenograft mice; assay type: in vivo, mouse; conditions: RD xenografts, i.v.
Procedure: Figure 2 FITC-labeled RMS-P3 binding in vitro and distribution in vivo. (A) Visualization of FITC-RMS-P3 peptide binding in normal and cancer cells in vitro. Cultured myoblasts (SkMC-c), fibroblasts (MRC-5), RMS cells (RD) and breast carcinoma cells (MDA-MB 231) were incubated with 100 nM FITC-RMS-P3 peptide for 1 h at 37°C. Fluorescence microscopy of fixed cells is shown. (B) Living RD cells were incubated with FITC-RMS-P3 peptide, subsequently fixed and stained with giantin (red). Colocalization is shown in the merged picture by yellow. Blue staining (DAPI) indicates the nuclei. Magnifications: 40x, scale bars: 20 µm. (C) Distribution of FITC-RMS-P3 and control peptide FITC-RMS-Pctrl in mice xenografts of RD cells. FITC-RMS-P3 or control FITC-RMS-Pctrl peptide were injected i.v. and after 10 minutes of circulation, mice were perfused and tumor and control organs were collected. Cryosections were double-labeled with mouse endothelial vessels markers CD31 and MECA-32 (red). Nuclear staining by DAPI is shown in blue. Magnifications: 40x, scale bars: 20 µm.
Figure 3 Identification of the receptor for RMS-P3. (A) Alanine-scan of the RMS-P3 sequence. RMS-P3 was mutated by replacing each amino acid residue with alanine (codon GCT). All phage mutants were tested individually for binding to RD cells in vitro. Mutated residues are indicated in bold. Phage binding was quantified over non-recombinant T7 and compared to the binding of wild type phage RMS-P3. Depicted are mean values ± SD of three independent experiments. […] (B) FITC-RMS-P3/RR and FITC-RMS-P3/AA distribution in RD xenograft mice. After tail vein injection of both FITC-RMS-P3/RR or control peptide RMS-P3/AA and circulation of 10 min, mice were perfused, tumors and control organs were dissected and FITC-peptide distribution (green) was evaluated in cryosections under fluorescence microscopy. Blood endothelial stainings (CD31 and MECA32) are shown in red, nuclear staining in blue (DAPI). Magnification: 20x, scale bar 50 µm. (C) Expression of proprotein convertases (PCs) measured by microarray profiling of 9 RMS cell lines and 30 RMS biopsy samples. Expression of PCs recognizing the cleavage site R(X)(R/K)(R/K) were considered. Each cell line or biopsy is represented by one data point. (D) Furin expression in different cell lines. Normal myoblasts (SkMC-c), fibroblasts (MRC-5), RMS cell lines (RD, Rh4, Rh30), furin-deficient colorectal carcinoma cells (LoVo) and furin-positive breast carcinoma cells (MBA-MB 231) were tested for furin expression by qRT-PCR (upper graph). […] Western blot (lower panels). Immature membrane-bound furin was detected at 103 kD, mature furin at 97 kD. PCNA was used as loading control.
Figure 6 FITC-RMS-P3/RR and FITC-RMS-P3/AA distribution in mice bearing RD xenografts. Peptides were injected i.v. and after circulation the mice were perfused, tumors and control organs were removed and peptide distribution was evaluated on cryosections by fluorescence microscopy. Depicted are overlay images (B, upper left panel) and single channel pictures. FITC-peptide stainings (green), either furin or endothelial stainings (CD31, MECA32) in red and cell nuclei in blue (DAPI) are shown. Magnification: 40x, scale bars 50 µm.
Supplementary file pone.0010445.s002.tif: Figure S2 Subcellular localization of FITC-RMS-P3 peptide. (A, B) FITC-RMS-P3/RR cell surface and intracellular localization. RD cells were incubated with 100 nM FITC-RMS-P3 peptide in vitro for 30 min at 4°C (A) or 37°C (B), respectively. Fixed cells were stained with undiluted 5.1H11 hybridoma supernatant against the human muscle-specific cell surface antigen N-CAM (red). A secondary rabbit anti-mouse Cy3 antibody (1∶300, Invitrogen) was used for detection. […] Cell nuclei were visualized with DAPI. Nuclei are indicated in grey. Magnification: 63x, scale bars: 20 µm. […]

MRC-5-FUR cells = assay: FITC-RMS-P3/RR binding to furin-transfected fibroblasts; assay type: cell-based; conditions: 100 nM, 1h at RT
Procedure: Figure 4 RMS-P3/RR phage binding correlates with furin expression levels. (A) Binding of phage RMS-P3/RR to untransfected (MRC-5), furin-overexpressing (MRC-FUR) and empty vector transfected MRC-5 fibroblasts (MRC-EV) was tested in vitro. Phage binding was quantified over control T7. Results of three independent experiments ± SD are shown. Western blot of the same samples for furin expression and PCNA as loading control (A, lower panels) (B) Micrographs of MRC-5 fibroblasts (upper row) and MRC-5-FUR (lower row) cells incubated with 100 nM FITC-RMS-P3/RR (green) for 1h at RT, fixed and stained with the anti-furin-antibody Mon-152 (red). Nuclei are visualized by DAPI staining (blue). Yellow indicates overlap of the two stainings. Magnification: 40x; scale bars: 20 µm. (C) Inhibition of furin maturation in α1-PDX-transfected RD cells reduces phage binding. Phage RMS-P3/RR binding to untransfected RD, furin-inhibited RD-PDX and empty-vector transfected RD-EV cells was determined over non-recombinant T7 in three independent experiments (means ± SD). Expression of the inhibitor α1-PDX was confirmed by western blotting using 100 µg cell extract with antiserum against α1AT (C, lower panels). (D) Effect of the specific PC-inhibitor Dec-RVKR-cmk on phage RMS-P3/RR binding. […] Phage binding was calculated over T7. […]

RD cells [3] = assay: competition of phage RMS-P3/RR binding by Dec-RVKR-cmk; assay type: cell-based
Procedure: Figure 4 RMS-P3/RR phage binding correlates with furin expression levels. (A) Binding of phage RMS-P3/RR to untransfected (MRC-5), furin-overexpressing (MRC-FUR) and empty vector transfected MRC-5 fibroblasts (MRC-EV) was tested in vitro. Phage binding was quantified over control T7. Results of three independent experiments ± SD are shown. Western blot of the same samples for furin expression and PCNA as loading control (A, lower panels) (B) Micrographs of MRC-5 fibroblasts (upper row) and MRC-5-FUR (lower row) cells incubated with 100 nM FITC-RMS-P3/RR (green) for 1h at RT, fixed and stained with the anti-furin-antibody Mon-152 (red). Nuclei are visualized by DAPI staining (blue). Yellow indicates overlap of the two stainings. Magnification: 40x; scale bars: 20 µm. (C) Inhibition of furin maturation in α1-PDX-transfected RD cells reduces phage binding. Phage RMS-P3/RR binding to untransfected RD, furin-inhibited RD-PDX and empty-vector transfected RD-EV cells was determined over non-recombinant T7 in three independent experiments (means ± SD). Expression of the inhibitor α1-PDX was confirmed by western blotting using 100 µg cell extract with antiserum against α1AT (C, lower panels). (D) Effect of the specific PC-inhibitor Dec-RVKR-cmk on phage RMS-P3/RR binding. Competition was performed with increasing concentrations of Dec-RVKR-cmk and constant amounts of phage (10^9 pfu). Phage binding was calculated over T7.
as §1

Substance: CMGTINTRTKKC (disulfide 1-12 (inferred)) [RMS-P3]
- IC50 (RD cells [1]; RD cells, 10^6, peptide preincubated 30 min, then phage 10^9 pfu 1 h at RT, three independent experiments, read-out: Half-maximal inhibition (IC50) of phage RMS-P3 binding): ~0.1 µM
- regression slope b of phage RMS-P3 binding versus peptide concentration (RD cells [1]): −17.5
- phage RMS-P3 binding remaining (RD cells [1]; peptide at highest concentration tested (10 µM), percentage of maximal phage binding): 7.5%

Substance: CSPNNTRRPNKC (disulfide 1-12 (inferred)) [RMS-Pctrl]
- effect on phage RMS-P3 binding (RD cells [1]; increasing peptide concentrations): no effect
- regression slope b of phage RMS-P3 binding versus peptide concentration (RD cells [1]): 0.055

Substance: Doxorubicin-succinyl-GG-CMGTINTRTRRC (disulfide) [Dox-RMS-P3/RR]
- tumor size compared to Dox alone, Dox and peptide, peptide alone or vehicle (RD xenografts; 10 µg doxorubicin equivalent/week i.v., student's t-test, p<0.05): significantly smaller
- increase in therapeutic efficacy compared to doxorubicin treatment alone (RD xenografts; RMS in mice): two-fold
- delay in tumor growth compared to untargeted drug delivery (RD xenografts; weekly tail vein injections, 30 days): significant delay in tumor growth

Substance: FITC-RMS-P3/RR ({FITC}-GGCMGTINTRTRRC; also: cyclic peptide, ring type and places not given here)
- peptide distribution to muscle ([2]; 10 min circulation): not in control organs
- peptide uptake in kidney ([2]; 10 min circulation): not in control organs
- peptide accumulation in tumor ([2]; 10 min circulation, cryosections): Accumulation
- peptide accumulation in tumor ([2]; 10 min circulation, cryosections, listed as FITC-labeled RMS-P3/RR): strong peptide fluorescence
- colocalization with furin around blood vessels in tumor ([2]; cryosections): furin colocalized with peptide RMS-P3/RR fluorescence
- penetration into the tumor ([2]; around blood vessels, cryosections): about 30 µm
- colocalization of furin and FITC-peptide (MRC-5-FUR cells; anti-furin-antibody Mon-152): clear colocalization
- FITC-peptide binding to MRC-5-FUR cells (MRC-5-FUR cells; in contrast to untransfected cells): strong peptide binding

Substance: decanoyl-Arg-Val-Lys-Arg-chloromethylketone [Dec-RVKR-cmk]
- phage RMS-P3/RR binding in presence of inhibitor (RD cells [3]; 1 µM Dec-RVKR-cmk, RD cells, 30 min preincubation, phage 10^9 pfu 1 h): half-maximal
- effect on binding of control phage RMS-P3/AA (RD cells [3]; Dec-RVKR-cmk, RD cells): remained unaffected
- regression slope b of phage RMS-P3/RR binding versus Dec-RVKR-cmk concentration (RD cells [3]; least-squares regression, N = 18, r^2 = 0.883, p<0.0001): −17.9
